Assay results as given in patent US20220288010A1, “METHODS FOR REDUCING REWARDING EFFECTS OF MORPHINE WITHOUT AFFECTING ITS ANALGESIC EFFECTS” (The Board of Trustees of the Leland Stanford Junior …, priority 2019, published 2022).
“Also recorded” adds a separate entry of the source.

How the values were obtained:
mice [1] = test: morphine conditioned place preference (CPP) paradigm to assess morphine reward; type: in vivo
Source text: The ability of a MAGL inhibitor to attenuate the rewarding effect of an opioid can also be assessed in animal models. For example, a morphine conditioning place preference (CPP) paradigm can be used as a preclinical model to measure reward, in which mice are conditioned to associate a particular chamber with the rewarding effects of morphine (see, e.g., Example 1). Reward, e.g., as measured by a preference for the morphine chamber, can be assessed at different phases of morphine conditioning, for example to assess if a MAGL inhibitor decreases or inhibits the establishment of the rewarding effect or of its maintenance or expression.
Endocannabinoid signaling is primarily regulated by MAGL and FAAH, the two enzymes responsible for catabolizing the endogenous cannabinoids, 2-AG and anandamide. Although some studies have shown that inhibition of these enzymes reduces certain aspects of morphine withdrawal, no studies exist that have examined their role in morphine reward. We utilized the morphine conditioned place preference (CPP) paradigm, to assess morphine reward, in which mice are conditioned to associate a particular chamber with the rewarding effects of morphine (FIG. 1A). […] To test the effect of systemic blockade of MAGL with the pharmacological inhibitor JZL-184 on morphine reward, on Day 1 mice underwent a baseline test, on Day 2-5 mice were conditioned to morphine wherein they received an intraperitoneal (i.p.) injection of JLZ-184 (10 mg/kg, i.p.), two hours prior to each morphine conditioning session (FIG. 1B). On day 6, mice were tested for morphine preference. […] Next, to test if this effect of MAGL inhibition was selective for the conditioning phase or potentially could also alter the expression of the morphine preference, mice were injected with JLZ-184 two hours prior to the Day 6 morphine preference test, in the absence of morphine (FIG. 1D).
In order to expand our findings, we decided to test the (R)-3t compound, a reversible MAGL inhibitor, in morphine conditioned place preference. As with JZL-184, (R)-3t (20 mg/kg) was given before each morphine conditioning session (FIG. 3A).
To test the effect of inhibiting the enzyme FAAH on the rewarding effects of morphine, we tested the effect of the FAAH inhibitor PF-3845 in morphine conditioned place preference. […] We additionally found no effect of PF-3845 (10 mg/kg, i.p.) on morphine-induced analgesia and morphine tolerance using the tail-flick test (FIGS. 4E-G).
Inhibition of the MAGL enzyme with JZL-184 results in lower metabolization of the endogenous cannabinoid 2-AG. This implies higher availability of this endogenous cannabinoid receptor 1 (CB1) ligand to activate CB1 receptors. Next, we tested the effect of activating the CB1 receptor with the exogenous CB1 ligand, THC, on morphine conditioned place preference. Mice were systemically administered THC prior to each morphine conditioning session (FIG. 5A).

mice [2] = test: tail flick test, morphine analgesia, cumulative dose response of morphine; type: in vivo
mice [3] = test: tail flick test, tolerance to morphine's analgesic effects; type: in vivo
Experimental: Chronic morphine treatment can result in tolerance to its analgesic effects; therefore, to test if morphine tolerance was affected by MAGL inhibition, for four consecutive days mice received a morning and afternoon injection of JZL-184 (10 mg/kg, i.p.), two hours prior to an injection of morphine (10 mg/kg), and antinociception was assessed every other day in the tail flick test.

mice [4] = test: cocaine conditioned place preference (CPP); type: in vivo; details: JZL-184 prior to each cocaine conditioning session
Source text: Although drugs of abuse exert their rewarding effects through similar pathways and brain structures, they use different mechanisms. […] Mice were pretreated with JZL-184 prior to each cocaine conditioning session (FIG. 6A).

[5] = tested on: nucleus accumbens (NAc) activity; test: in vivo fiber photometry (GCaMP6s) recording during morphine CPP; details: JZL-184 treated mice
Source text: FIGS. 7A-7D. MAGL inhibition reduces nucleus accumbens (NAc) activity during morphine CPP. FIG. 7A: Experimental timeline for fiber photometry recording during […]. FIG. 7B: Brain schematic with an optic fiber implanted into the NAc expressing the calcium indicator GCaMP6s and a representative image of the GCaMP6s expressing in the NAc (aca=anterior commissure, AcbC=nucleus accumbens core, AcbSh=nucleus accumbens shell). FIG. 7C: Graph of the quantification of the mean signal (representative of NAc activity) around zone entry into the morphine- or saline-paired chambers of vehicle- or JZL-184-pretreated animals. (dF/F (%) data for the average signal +/− 5s around zone entries; vehicle-treated animals, morphine vs saline chamber *p<0.05, n=6; JZL-184 treated animals, morphine vs saline p=0.054, n=9). FIG. 7D: Graph of the quantification of the onset of approach to morphine- or saline-paired chambers (dF/F (%) data for the average signal +/− 5s of the onset of approaching a chamber; vehicle-treated animals, morphine vs saline chamber *p<0.05, n=6; JZL-184 treated animals, morphine vs saline p=0.39, n=9).
The rewarding effects of morphine have been linked to neural activity of the brain region the nucleus accumbens. […]

[6] = tested on: monoacylglycerol lipase (MAGL); details: cited from earlier work
[7] = pretreatment with PF-3845 10 mg/kg i.p.

With `O=C(Oc1ccc([N+](=O)[O-])cc1)N1CCC(C(O)(c2ccc3c(c2)OCO3)c2ccc3c(c2)OCO3)CC1` [JZL-184, (4-nitrophenyl) 4-[bis(1,3-benzodioxol-5-yl)-hydroxymethyl]piperidine-1-carboxylate] the “acquisition of morphine CPP (morphine reward)” value (from here on “acquisition … (morphine reward)”) (mice [1]; JZL-184 10 mg/kg i.p. two hours prior to each morphine conditioning session (Day 2-5), preference test Day 6, 10 mg/kg) was “abolishes morphine reward; also recorded: abolishes the rewarding effects of morphine; also recorded: abolished morphine CPP”, the “expression of morphine CPP” value (mice [1]; JZL-184 two hours prior to the Day 6 morphine preference test, in the absence of morphine) was “does not alter the expression of morphine CPP” and the “expression of morphine CPP” value (mice [1]; JZL-184 two hours prior to the Day 6 morphine preference test, in the absence of morphine, listed as JLZ-184) was “had no effect on morphine reward”. For the same molecule, the morphine-induced analgesia (mice [2]; JZL-184 10 mg/kg i.p. two hours before morphine 0.1-10 mg/kg cumulative, tested 30 minutes after each dose) was “did not alter the analgesic effects of morphine; also recorded: does not affect morphine-induced analgesia”, the “development of tolerance to morphine's analgesic effects” value (mice [3]; JZL-184 10 mg/kg i.p. morning and afternoon, two hours prior to morphine 10 mg/kg, four consecutive days, compared to vehicle) was “delayed morphine-induced tolerance; also recorded: delays the development of tolerance to morphine's analgesic effects” and the “acquisition of cocaine CPP (cocaine reward)” value (mice [4]) was “did not have any effect on cocaine reward; also recorded: does not alter the acquisition of cocaine CPP”. The “higher nucleus accumbens activity when approaching the morphine-paired chamber” value ([5]; onset of approach (FIG. 7D)) was “abolished”, the “increase in nucleus accumbens activity prior to entry into the morphine-paired chamber vs saline-paired chamber” value ([5]; signal around zone entry (FIG. 7C)) was “absent” and the “selectivity for MAGL over other brain serine hydrolases, including FAAH” value [6] was “highly selective for MAGL over other brain serine hydrolases”.

In the case of `O=C(Nc1cccnc1)N1CCC(Cc2cccc(Oc3ccc(C(F)(F)F)cn3)c2)CC1` [PF-3845], the “acquisition of morphine CPP” value (mice [1]; PF-3845 10 mg/kg i.p. before each conditioning session, 10 mg/kg) is reported as “had no effect on acquisition of morphine conditioned place preference; also recorded: does not alter acquisition of morphine CPP”, the “expression of morphine CPP” value (mice [1]; PF-3845 10 mg/kg i.p. before the morphine CPP expression test, 10 mg/kg) is reported as “had no effect; also recorded: does not alter” and the morphine-induced analgesia (mice [2]; [7]) is reported as “no effect; also recorded: are not affected”. The morphine tolerance (mice [3]; [7]) was “no effect; also recorded: are not affected”.

For `Cc1ncccc1-c1cc(F)cc(N2C[C@H](N3CCN(c4ncccn4)CC3)CC2=O)c1` [(R)-3t, (4R)-1-[3-fluoro-5-(2-methylpyridin-3-yl)phenyl]-4-[4-(pyrimidin-2-yl)piperazin-1-yl]pyrrolidin-2-one], the “acquisition … (morphine reward)” value (mice [1]; (R)-3t 20 mg/kg before each morphine conditioning session) was “resulted in a lack of morphine reward; also recorded: abolishes the rewarding effects of morphine; also recorded: abolishes acquisition of CPP”.

For `CCCCCc1cc(O)c2c(c1)OC(C)(C)[C@@H]1CCC(C)=C[C@@H]21` [THC, Δ^9-Tetrahydrocannabinol], the “acquisition … (morphine reward)” value (mice [1]; THC systemically prior to each morphine conditioning session) was “had no effect on morphine reward; also recorded: does not alter the acquisition of morphine CPP”.
